{"source": "patent US20220184071A1", "about": "“GEPOTIDACIN FOR USE IN THE TREATMENT OF BACTERIAL URINARY TRACT INFECTIONS” (GlaxoSmithKline Intellectual Property Development Limited, priority 2019, published 2022)", "key": {"E. coli ALL": {"system": "E. coli ALL", "experiment": "Neutropenic mouse kidney infection (pyelonephritis/UTI) model PK/PD", "format": "in vivo", "settings": "Strain ALL", "procedure": "PK and PD studies using gepotidacin were conducted in murine (male CD-1 mice) thigh and kidney infections. The administered doses ranged from 1 to 200 mg/kg SC every 6 hours starting 1h post infection. Infected tissues were evaluated for bacterial burden at 24 h post infection (baseline controls at 1 h post infection).\nEfficacy was determined against E. coli ALL, 997577, ATCC25922, IR5 and NCTC13441 (MICs of 1 to 4 μg/mL) in thigh-infected neutropenic (I−) mice and against E. coli ALL in kidney-infected immunocompetent (I+) and I− mice. The PopPK model was used to determine GEP exposures associated with efficacy. PK-PD analyses were conducted using Phoenix WinNonLin 6.3 (Pharsight). The change in login colony forming units (CFU) from baseline were correlated with free drug (f) AUC:MIC using an inhibitory model from the Phoenix library, and model parameter values for each isolate were used to calculate the plasma fAUC:MIC associated with stasis, 1- or 2-login reductions in CFU.\nPD studies were conducted using thigh and/or kidney infection models in neutropenic or competent mice (N=5/group). Mice were infected with a bacterial suspension in log phase: 100 μL in the left thigh muscle or 50 μL in each of both kidneys (100 μl total). Final inocula across all isolates were 6.0 to 7.0 login CFU/mouse. Dose-ranging studies were conducted with 5 isolates (see Table 1). Starting 1 hr after infection, GEP was given SC (0.2 mL/mouse) at discrete doses of 1-200 mg/kg every 6 hours (q6) for a 24-hour period (4 doses in total). Mice were euthanized 24 hr after start of therapy (6 hr after the last dose), and infected thighs or kidneys were processed to determine viable bacterial counts (CFU). Baseline CFU were obtained from untreated mice at 1 hr post infection and growth control CFU from saline-treated mice at 24 hr.\nNCA analyses were conducted with the simulated data. […]"}, "Fusobacterium spp.": {"system": "Fusobacterium spp.", "experiment": "MIC by CLSI agar dilution, Example 6 second study", "format": "cell-based", "settings": "3 isolates", "description": "(§1) A second study tested gepotidacin by CLSI agar dilution against gram-positive and gram-negative anaerobic bacterial isolates from the GlaxoSmithKline Upper Providence culture collection. Amoxicillin, azithromycin, levofloxacin, and cefuroxime were included as comparators."}, "Clostridium bifermentans": {"system": "Clostridium bifermentans", "experiment": "MIC by CLSI agar dilution, Example 6 second study", "format": "cell-based", "settings": "Paraclostridium bifermentans; 1 isolate", "description": "as §1"}, "Prevotella spp.": {"system": "Prevotella spp.", "experiment": "MIC by CLSI agar dilution, Example 6 second study", "format": "cell-based", "settings": "1 isolate", "description": "as §1"}, "Peptostreptococcus spp.": {"system": "Peptostreptococcus spp.", "experiment": "MIC by CLSI agar dilution, Example 6 second study", "format": "cell-based", "settings": "4 isolates", "description": "as §1"}, "Providencia stuartii": {"system": "Providencia stuartii", "experiment": "MIC by CLSI broth microdilution, isolates from UTI patients (Example 7)", "format": "cell-based", "settings": "n=1", "procedure": "(§2) Gepotidacin was tested against the following organisms obtained from UTI patients, in serial two-fold dilutions. The minimum inhibitory concentration (MIC) was determined by broth microdilution according to CLSI methods."}, "Acidovorax temperans": {"system": "Acidovorax temperans", "experiment": "MIC by CLSI broth microdilution, isolates from UTI patients (Example 7)", "format": "cell-based", "settings": "n=1", "procedure": "as §2"}, "Citrobacter amalonaticus": {"system": "Citrobacter amalonaticus", "experiment": "MIC by CLSI broth microdilution, isolates from UTI patients (Example 7)", "format": "cell-based", "settings": "n=1", "procedure": "as §2"}, "[1]": {"system": "Staphylococcus saprophyticus", "experiment": "MIC by CLSI broth microdilution in CAMHB and urine, Example 1 Method 3", "format": "cell-based", "settings": "for Mean MIC: n = 6; for MIC: Staphylococcus saprophyticus", "procedure": "Antimicrobial activity was determined by broth microdilution using the CLSI recommended procedure.\nThe compounds were tested in serial two-fold dilutions and the minimum inhibitory concentration (MIC) was determined as the lowest concentration of the compound that inhibited visible growth.\nIn particular, gepotidacin was tested against 6 strains of Staphylococcus saprophyticus from the collection of isolates at Laboratory Specialists, Inc., Westlake, Ohio.\nLevofloxacin was included as the comparator in the study to determine the effect of urine on the in vitro activity of gepotidacin against Staphylococcus saprophyticus. MICs were determined by broth microdilution according CLSI methods.\nThe data shown in the table below are results from an in vitro study conducted with the same S. saprophyticus isolates described above, to determine the effect of urine on the in vitro activity of gepotidacin and levofloxacin against S. saprophyticus. Study strains were tested for MICs (minimum inhibitory concentrations) according to reference CLSI broth microdilution method using cation-adjusted Mueller Hinton Broth (CAMHB) and with the addition of 25%, 50% and 100% urine (not pH adjusted, pH 6.42) and 100% urine (pH adjusted, 7.31 and 8.07)."}, "[2]": {"system": "All Qualifying Uropathogens", "experiment": "Phase IIa microbiological response (micro-ITT population)", "format": "in vivo, human", "settings": "for Microbiological Failure, n (%) (95% Confidence Interval): n 8"}}, "note": "“Also recorded” adds a separate entry of the source. Where two headings read alike, the source gives them in different places."}
{"smiles": "O=c1ccc2ncc(=O)n3c2n1C[C@H]3CN1CCC(NCc2cc3c(cn2)OCCC3)CC1", "note": "[gepotidacin, (2R)-2-({4-[(3,4-dihydro-2H-pyrano[2,3-c]pyridin-6-ylmethyl)amino]-1-piperidinyl}methyl)-1,2-dihydro-3H,8H-2a,5,8a-triazaacenaphthylene-3,8-dione]", "values": [{"measurement": "Daily fAUC/MIC for 1-log Drop", "setting": "E. coli ALL", "value": 8.7}, {"measurement": "Daily fAUC/MIC for 2-log Drop", "setting": "E. coli ALL", "value": 15.6}, {"measurement": "Daily fAUC/MIC for Stasis", "setting": "E. coli ALL", "value": 4.3}, {"measurement": "MIC", "setting": "Fusobacterium spp.", "value": "0.12 to 1", "unit": "µg/mL"}, {"measurement": "MIC", "setting": "Clostridium bifermentans", "value": 0.06, "unit": "µg/mL"}, {"measurement": "MIC", "setting": "Prevotella spp.", "value": 4, "unit": "µg/mL"}, {"measurement": "MIC", "setting": "Peptostreptococcus spp.", "value": "0.12 to 2", "unit": "µg/mL"}, {"measurement": "MIC", "setting": "Providencia stuartii", "value": 32, "unit": "µg/mL"}, {"measurement": "MIC", "setting": "Acidovorax temperans", "value": 1, "unit": "µg/mL"}, {"measurement": "MIC", "setting": "Citrobacter amalonaticus", "value": 2, "unit": "µg/mL"}, {"measurement": "MIC range", "setting": "[1]; 3 isolates of methicillin-resistant S. saprophyticus", "value": "0.06 to 0.5", "unit": "µg/mL"}, {"measurement": "MIC range", "setting": "[1]; 3 isolates of methicillin-susceptible S. saprophyticus", "value": "0.03 to 0.5", "unit": "µg/mL"}, {"measurement": "Mean Dilution Difference", "setting": "[1]; 25% Urine (pH 7.09) vs CAMHB", "value": 0.00}, {"measurement": "Mean difference", "setting": "[1]; 25% Urine (pH 7.09) vs CAMHB", "value": 0.00}, {"measurement": "N(%) ± 1 dilution", "setting": "[1]; 25% Urine (pH 7.09) vs CAMHB", "value": "6 (100%)"}, {"measurement": "N(%) ± 2 dilution", "setting": "[1]; 25% Urine (pH 7.09) vs CAMHB", "value": "6 (100%)"}, {"measurement": "Mean MIC", "setting": "[1]; 25% Urine (pH 7.09)", "value": 0.11, "unit": "µg/mL"}, {"measurement": "Mean Dilution Difference", "setting": "[1]; 50% Urine (6.99) vs CAMHB", "value": 0.00}, {"measurement": "Mean difference", "setting": "[1]; 50% Urine (6.99) vs CAMHB", "value": 0.00}, {"measurement": "N(%) ± 1 dilution", "setting": "[1]; 50% Urine (6.99) vs CAMHB", "value": "6 (100%)"}, {"measurement": "N(%) ± 2 dilution", "setting": "[1]; 50% Urine (6.99) vs CAMHB", "value": "6 (100%)"}, {"measurement": "Mean MIC", "setting": "[1]; 50% Urine (6.99)", "value": 0.11, "unit": "µg/mL"}, {"measurement": "Mean Dilution Difference", "setting": "[1]; 100% Urine (pH 6.42) vs CAMHB", "value": 1.18}, {"measurement": "Mean difference", "setting": "[1]; 100% Urine (pH 6.42) vs CAMHB", "value": 0.14}, {"measurement": "N(%) ± 1 dilution", "setting": "[1]; 100% Urine (pH 6.42) vs CAMHB", "value": "4 (66.7%)"}, {"measurement": "N(%) ± 2 dilution", "setting": "[1]; 100% Urine (pH 6.42) vs CAMHB", "value": "6 (100%)"}, {"measurement": "Mean MIC", "setting": "[1]; 100% Urine (pH 6.42)", "value": 0.24, "unit": "µg/mL"}, {"measurement": "Mean Dilution Difference", "setting": "[1]; 100% Urine (pH 7.31) vs CAMHB", "value": 1.54}, {"measurement": "Mean difference", "setting": "[1]; 100% Urine (pH 7.31) vs CAMHB", "value": 0.21}, {"measurement": "N(%) ± 1 dilution", "setting": "[1]; 100% Urine (pH 7.31) vs CAMHB", "value": "3 (50%)"}, {"measurement": "N(%) ± 2 dilution", "setting": "[1]; 100% Urine (pH 7.31) vs CAMHB", "value": "4 (66.7%)"}, {"measurement": "Mean MIC", "setting": "[1]; 100% Urine (pH 7.31)", "value": 0.31, "unit": "µg/mL"}, {"measurement": "Mean Dilution Difference", "setting": "[1]; 100% Urine (pH 8.07) vs CAMHB", "value": 1.36}, {"measurement": "Mean difference", "setting": "[1]; 100% Urine (pH 8.07) vs CAMHB", "value": 0.17}, {"measurement": "N(%) ± 1 dilution", "setting": "[1]; 100% Urine (pH 8.07) vs CAMHB", "value": "3 (50%)"}, {"measurement": "N(%) ± 2 dilution", "setting": "[1]; 100% Urine (pH 8.07) vs CAMHB", "value": "5 (83.3%)"}, {"measurement": "Mean MIC", "setting": "[1]; 100% Urine (pH 8.07)", "value": 0.28, "unit": "µg/mL"}, {"measurement": "Mean MIC", "setting": "[1]; CAMHB (ref. method, pH 7.2)", "value": 0.11, "unit": "µg/mL"}, {"measurement": "MIC", "setting": "[1]; read-out: MICs, heading: MICs, methicillin-susceptible and methicillin-resistant isolates tested (conclusion)", "value": "≤ 0.5", "unit": "µg/mL"}, {"measurement": "MIC", "setting": "[1]; at least one strain of methicillin-susceptible or methicillin-resistant S. saprophyticus, read-out: MIC", "value": "≤ 0.5", "unit": "µg/mL"}, {"measurement": "MIC fold lower than levofloxacin", "setting": "[1]; each of the methicillin-resistant S. saprophyticus", "value": 4, "unit": "fold"}, {"measurement": "mean dilution differences (range)", "setting": "[1]; gepotidacin in 100% urine (conclusion)", "value": "1.18-1.54"}, {"measurement": "MIC fold lower than levofloxacin", "setting": "[1]; methicillin-susceptible S. saprophyticus", "value": "8-32 fold"}, {"measurement": "Microbiological Failure, n (%) (95% Confidence Interval)", "setting": "[2]; Follow-up Visit", "value": "2 (25) (3-65)"}, {"measurement": "Microbiological Failure, n (%) (95% Confidence Interval)", "setting": "[2]; TOC Visit", "value": "1 (13) (<1-53)"}, {"measurement": "reduction in susceptibility to gepotidacin (≥4-fold increase in MIC)", "setting": "[2]; baseline uropathogen vs same uropathogen at subsequent visits", "value": "no evidence of reduction in susceptibility; also recorded: No participants developed post-treatment uropathogens with reduced susceptibility"}]}
